Results published in ChEMBL document CHEMBL4004838, “Design and synthesis of novel phenyl -1, 4-beta-carboline-hybrid molecules as potential anticancer agents” (Eur J Med Chem, 2017).

What was measured:
Format in all cases: functional
[1] = system: HCT-116; experiment: Growth inhibition of human HCT116 cells assessed as cell growth at 0.1 uM incubated for 48 hrs by sulforhodamine B assay relative to control; conditions: HCT-116, 48 h, read-out: Activity
[2] = system: 786-0; experiment: Growth inhibition of human 786-0 cells assessed as cell growth at 100 uM incubated for 48 hrs by sulforhodamine B assay relative to control; conditions: 786-0, 48 h, read-out: Activity
[3] = system: TK-10; experiment: Growth inhibition of human TK10 cells assessed as cell growth at 100 uM incubated for 48 hrs by sulforhodamine B assay relative to control; conditions: TK-10, 48 h, read-out: Activity
[4] = system: SK-MEL-2; experiment: Growth inhibition of human SK-MEL-2 cells assessed as cell growth at 0.1 uM incubated for 48 hrs by sulforhodamine B assay relative to control; conditions: SK-MEL-2, 48 h, read-out: Activity
[5] = system: K562; experiment: Growth inhibition of human K562 cells assessed as cell growth at 1 uM incubated for 48 hrs by sulforhodamine B assay relative to control; conditions: K562, 48 h, read-out: Activity
[6] = system: NCI-H23; experiment: Growth inhibition of human NCI-H23 cells incubated for 48 hrs by sulforhodamine B assay; conditions: NCI-H23, 48 h
[7] = system: UACC-62; experiment: Growth inhibition of human UACC62 cells assessed as cell growth at 0.1 uM incubated for 48 hrs by sulforhodamine B assay relative to control; conditions: UACC-62, 48 h, read-out: Activity
[8] = system: KM12; experiment: Growth inhibition of human KM12 cells incubated for 48 hrs by sulforhodamine B assay; conditions: KM12, 48 h
[9] = system: MDA-MB-435; experiment: Growth inhibition of human MDA-MB-435 cells assessed as cell growth at 100 uM incubated for 48 hrs by sulforhodamine B assay relative to control; conditions: MDA-MB-435, 48 h, read-out: Activity
[10] = system: OVCAR-5; experiment: Growth inhibition of human OVCAR5 cells assessed as cell growth at 1 uM incubated for 48 hrs by sulforhodamine B assay relative to control; conditions: OVCAR-5, 48 h, read-out: Activity
[11] = system: UO-31; experiment: Growth inhibition of human UO31 cells assessed as cell growth at 100 uM incubated for 48 hrs by sulforhodamine B assay relative to control; conditions: UO-31, 48 h, read-out: Activity
[12] = system: SK-MEL-5; experiment: Growth inhibition of human SK-MEL-5 cells assessed as cell growth at 0.01 uM incubated for 48 hrs by sulforhodamine B assay relative to control; conditions: SK-MEL-5, 48 h, read-out: Activity
[13] = system: IGROV-1; experiment: Growth inhibition of human IGROV1 cells assessed as cell growth at 100 uM incubated for 48 hrs by sulforhodamine B assay relative to control; conditions: IGROV-1, 48 h, read-out: Activity
[14] = system: CCRF-CEM; experiment: Growth inhibition of human CCRF-CEM cells incubated for 48 hrs by sulforhodamine B assay
[15] = system: HL-60(TB); experiment: Growth inhibition of human HL-60(TB) cells assessed as cell growth at 1 uM incubated for 48 hrs by sulforhodamine B assay relative to control; conditions: HL-60, 48 h, read-out: Activity
[16] = system: MDA-MB-468; experiment: Growth inhibition of human MDA-MB-468 cells assessed as cell growth at 1 uM incubated for 48 hrs by sulforhodamine B assay relative to control; conditions: MDA-MB-468, 48 h, read-out: Activity
[17] = system: COLO 205; experiment: Growth inhibition of human COLO205 cells assessed as cell growth at 0.1 uM incubated for 48 hrs by sulforhodamine B assay relative to control; conditions: COLO 205, 48 h, read-out: Activity
[18] = system: SK-OV-3; experiment: Growth inhibition of human SKOV3 cells assessed as cell growth at 1 uM incubated for 48 hrs by sulforhodamine B assay relative to control; conditions: SK-OV-3, 48 h, read-out: Activity
[19] = system: OVCAR-8; experiment: Growth inhibition of human OVCAR8 cells assessed as cell growth at 0.01 uM incubated for 48 hrs by sulforhodamine B assay relative to control; conditions: OVCAR-8, 48 h, read-out: Activity
[20] = system: SNB-19; experiment: Growth inhibition of human SNB19 cells assessed as cell growth at 100 uM incubated for 48 hrs by sulforhodamine B assay relative to control; conditions: SNB-19, 48 h, read-out: Activity
[21] = system: Malme-3M; experiment: Growth inhibition of human MALME-3M cells assessed as cell growth at 1 uM incubated for 48 hrs by sulforhodamine B assay relative to control; conditions: read-out: Activity
[22] = system: SF-539; experiment: Growth inhibition of human SF539 cells incubated for 48 hrs by sulforhodamine B assay; conditions: SF-539, 48 h
[23] = system: SK-OV-3; experiment: Growth inhibition of human SKOV3 cells incubated for 48 hrs by sulforhodamine B assay; conditions: SK-OV-3, 48 h
[24] = system: SK-MEL-28; experiment: Growth inhibition of human SK-MEL-28 cells incubated for 48 hrs by sulforhodamine B assay; conditions: SK-MEL-28, 48 h
[25] = system: COLO 205; experiment: Growth inhibition of human COLO205 cells assessed as cell growth at 0.01 uM incubated for 48 hrs by sulforhodamine B assay relative to control; conditions: COLO 205, 48 h, read-out: Activity
[26] = system: A549; experiment: Growth inhibition of human A549/ATCC cells assessed as cell growth at 0.1 uM incubated for 48 hrs by sulforhodamine B assay relative to control; conditions: A549, 48 h, read-out: Activity
[27] = system: SF-295; experiment: Growth inhibition of human SF295 cells assessed as cell growth at 0.01 uM incubated for 48 hrs by sulforhodamine B assay relative to control; conditions: SF-295, 48 h, read-out: Activity
[28] = system: HCT-15; experiment: Growth inhibition of human HCT15 cells assessed as cell growth at 0.01 uM incubated for 48 hrs by sulforhodamine B assay relative to control; conditions: HCT-15, 48 h, read-out: Activity
[29] = system: MCF7; experiment: Growth inhibition of human MCF7 cells assessed as cell growth at 0.1 uM incubated for 48 hrs by sulforhodamine B assay relative to control; conditions: MCF7, 48 h, read-out: Activity
[30] = read-out: LC50 (the source's name)
[31] = read-out: pLC50 (the source's name) (converted)

c1ccc2c3c([nH]c2c1)C(c1ccc(C2NCCc4c2[nH]c2ccccc42)cc1)NCC3 (racemic)
growth at 0.1 µM [1]: 89%
growth at 100 µM [2]: -85%
growth at 100 µM [3]: -96%
growth at 0.1 µM [4]: 94%
growth at 1 µM [5]: 52%
GI50 ([6]; read-out: GI50): 1.65 µM
CC50 [6, 30]: 6.83 µM
TGI ([6]; read-out: TGI): 3.36 µM
GI50 ([6]; read-out: pGI50 (converted)): 1.66 µM
CC50 [6, 31]: 6.76 µM
TGI ([6]; read-out: pTGI (converted)): 3.39 µM
growth at 0.1 µM [7]: 99%
GI50 ([8]; read-out: GI50): 1.07 µM
TGI ([8]; read-out: TGI): 2.36 µM
GI50 ([8]; read-out: pGI50 (converted)): 1.07 µM
TGI ([8]; read-out: pTGI (converted)): 2.34 µM
growth at 100 µM [9]: 97%
growth at 1 µM [10]: 85%
growth at 100 µM [11]: -96%
growth at 0.01 µM [12]: 99%
growth at 100 µM [13]: 89%
CC50 [14, 30]: 1.22 µM
GI50 ([14]; read-out: pGI50 (converted)): 0.457 µM
CC50 [14, 31]: 12.3 µM
TGI ([14]; read-out: pTGI (converted)): 2.04 µM
growth at 1 µM [15]: 57%
growth at 1 µM [16]: 11%
growth at 0.1 µM [17]: 94%
growth at 1 µM [18]: 90%
growth at 0.01 µM [19]: 101%
growth at 100 µM [20]: 88%
growth at 1 µM [21]: 82%
GI50 ([22]; read-out: GI50): 1.62 µM
CC50 [22, 30]: 5.71 µM
TGI ([22]; read-out: TGI): 3.04 µM
GI50 ([22]; read-out: pGI50 (converted)): 1.62 µM
CC50 [22, 31]: 5.75 µM
TGI ([22]; read-out: pTGI (converted)): 3.02 µM
GI50 ([23]; read-out: GI50): 1.88 µM
CC50 [23, 30]: 9.12 µM
TGI ([23]; read-out: TGI): 4.14 µM
GI50 ([23]; read-out: pGI50 (converted)): 1.86 µM
CC50 [23, 31]: 9.12 µM
TGI ([23]; read-out: pTGI (converted)): 4.17 µM
GI50 ([24]; read-out: GI50): 1.68 µM
CC50 [24, 30]: 5.99 µM
TGI ([24]; read-out: TGI): 3.18 µM
GI50 ([24]; read-out: pGI50 (converted)): 1.7 µM
CC50 [24, 31]: 6.03 µM
TGI ([24]; read-out: pTGI (converted)): 3.16 µM
growth at 0.01 µM [25]: 95%
growth at 0.1 µM [26]: 95%
growth at 0.01 µM [27]: 90%
growth at 0.01 µM [28]: 94%
growth at 0.1 µM [29]: 90%

c1ccc2[nH]c(-c3ccc(-c4nccc5c4[nH]c4ccccc45)cc3)nc2c1
growth at 0.1 µM [1]: 96%
growth at 100 µM [2]: 70%
growth at 100 µM [3]: 85%
growth at 0.1 µM [4]: 97%
growth at 1 µM [5]: 100%
CC50 [6, 30]: 8.7 µM
GI50 ([6]; read-out: pGI50 (converted)): 3.47 µM
CC50 [6, 31]: 87.1 µM
TGI ([6]; read-out: pTGI (converted)): 17.8 µM
growth at 0.1 µM [7]: 91%
LC50 ([8]; read-out: LC50): 5.29 µM
GI50 ([8]; read-out: pGI50 (converted)): 3.63 µM
LC50 ([8]; read-out: pLC50 (converted)): 52.5 µM
TGI ([8]; read-out: pTGI (converted)): 15.8 µM
growth at 100 µM [9]: 67%
growth at 1 µM [10]: 96%
growth at 100 µM [11]: 82%
growth at 0.01 µM [12]: 94%
growth at 100 µM [13]: 47%
GI50 ([14]; read-out: GI50): 3.12 µM
CC50 [14, 30]: > 1 µM
TGI ([14]; read-out: TGI): 9.12 µM
GI50 ([14]; read-out: pGI50 (converted)): 3.09 µM
CC50 [14, 31]: > 100 µM
TGI ([14]; read-out: pTGI (converted)): 9.12 µM
growth at 1 µM [15]: 94%
growth at 1 µM [16]: 98%
growth at 0.1 µM [17]: 97%
growth at 1 µM [18]: 100%
growth at 0.01 µM [19]: 100%
growth at 100 µM [20]: 29%
growth at 1 µM [21]: 96%
GI50 ([22]; read-out: GI50): 1.89 µM
CC50 [22, 30]: 7.17 µM
TGI ([22]; read-out: TGI): 3.68 µM
GI50 ([22]; read-out: pGI50 (converted)): 1.91 µM
CC50 [22, 31]: 7.24 µM
TGI ([22]; read-out: pTGI (converted)): 3.72 µM
CC50 [23, 30]: 4.66 µM
GI50 ([23]; read-out: pGI50 (converted)): 4.37 µM
CC50 [23, 31]: 46.8 µM
TGI ([23]; read-out: pTGI (converted)): 15.8 µM
GI50 ([24]; read-out: GI50): 1.96 µM
CC50 [24, 30]: 7.2 µM
TGI ([24]; read-out: TGI): 3.75 µM
GI50 ([24]; read-out: pGI50 (converted)): 1.95 µM
CC50 [24, 31]: 7.24 µM
TGI ([24]; read-out: pTGI (converted)): 3.72 µM
growth at 0.01 µM [25]: 94%
growth at 0.1 µM [26]: 98%
growth at 0.01 µM [27]: 90%
growth at 0.01 µM [28]: 93%
growth at 0.1 µM [29]: 96%
